Tested on: TEAD-YAP/TAZ interaction
Assay: CTGF ELISA assay
Assay type: cell-based, human
Conditions: CTGF in culture supernatant of NCI-H2052 cells, 24 hours with compound
Procedure: The detection of CTGF expression level can assessed the binding activity of TEAD-YAP/TAZ transcription factor, and the CTGF expression level was quantified by SimpleStep ELISA® kit (Abcam, ab261851).
NCI-H2052 cells (Purchased from ATCC) were cultured in RPMI 1640 medium, adding 10% FBS and 1% Penicillin-Streptomycin Solution and 1 mM Sodium pyruvate. The day before compounds treatment, the cultured cells were washed with PBS and digested with trypsin, then centrifuged and collected. Discarded the supernatant, the cells were resuspended in fresh complete medium. After cells counted, cells were seeded at 6500 cells/well in 96-well plates. And then cells were cultured overnight in incubator (37° C., 5% CO2).
After the cells were cultured overnight, discarded the culture supernatant, then washed with PBS solution, cells were incubated with 200 μl medium containing compounds in each well. The starting concentration was 10 μM and serial dilution in DMSO and medium were performed to achieve a final DMSO concentration of 0.5% (Final compounds concentration were 10000, 2500, 625, 156, 39.1, 9.77, 2.44, 0.61 nM, 0 nM (0.5% DMSO), The cells were then cultured in incubator (37° C., 5% CO2). Cultured for 24 hours, the cells were centrifuged at 1500 RPM at 4° C. for 5 minutes, and then 50 μl of culture supernatant were tested for CTGF ELISA assay.
The Human CTGF SimpleStep ELISA® Kit (Abcam, ab261851) employs an affinity tag labeled capture antibody and a reporter conjugated detector antibody which immunocapture the sample analyte in solution. This entire complex (capture antibody/analyte/detector antibody) is in turn immobilized via immunoaffinity of an anti-tag antibody coating the well. To perform the assay, samples or standards are added to the wells, followed by the antibody mix (capture antibody/detector antibody). After incubation, the wells are washed to remove unbound material. TMB Development Solution is added and during incubation is catalyzed by HRP, generating blue coloration. This reaction is then stopped by addition of Stop Solution completing any color change from blue to yellow. Signal is generated proportionally to the amount of bound analyte and the intensity is measured at 450 nm. Firstly, prepare all reagents, samples, and standards as instructed. Add 50 μl standard or sample to appropriate wells. Then add 50 μl of the Antibody Cocktail to each well. Seal the plate and incubate for 1 hour at room temperature on a plate shaker. Wash each well with Wash Buffer three times. Add 100 μl of TMB Development Solution to each well and incubate for 10 minutes in the dark on a plate shaker. Add 100 μl of Stop Solution to each well. Shake plate on a plate shaker for 1 minute to mix. Record the OD at 450 nm. Determine the concentration of the target protein in the sample by the standard curve.
EC50 value was determined by fitting the concentration response curves using GraphPad Prism software. The compounds of the present invention were tested for their capacity to inhibit TEAD-YAP/TAZ interaction according to the fitted curves of CTGF concentration response to compounds.

| EC50 [nM] | Structure (SMILES) |
| --- | --- |
| 23 | C=CC(=O)N1CCC(n2nc(-c3ccc(C(F)(F)F)cc3)c3ccc(F)cc32)C1 (stereo not shown) [Compound 50, 1-(3-(6-fluoro-3-(4-(trifluoro-methyl)phenyl)-1H-indazol-1-yl)-pyrrolidin-1-yl)prop-2-en-1-one] |
| 18 | C=CC(=O)N1CC(n2nc(-c3ccc(C(F)(F)F)nc3)c3ncccc32)C1 [Compound 131, 1-(3-(3-(6-(trifluoromethyl)pyr-idin-3-yl)-1H-pyrazolo[4,3-b]-pyridin-1-yl)azetidin-1-yl)prop-2-en-1-one] |
| 3 | C=CC(=O)N1CC(n2c(=O)n(-c3ccc(C(F)(F)F)cc3)c3ccccc32)C1 [Compound 236, 1-(1-acryloylazetidin-3-yl)-3-(4-(trifluoromethyl)phenyl)-1,3-dihydro-2H-benzo[d]imidazol-2-one] |
| > 10000 | C=C(F)C(=O)NCC(C(=O)O)n1nc(-c2ccc(C(F)(F)F)cc2)c2cccnc21 (stereo not shown) [Com. EX.2, 3-(2-fluoroacrylamido)-2-(3-(4-(trifluoromethyl)phenyl)-1H-pyrazolo[3,4-b]pyridin-1-yl)propanoic acid, reference compound] |
| 7 | C=C(C)C(=O)N1CC(n2nc(-c3ccc(C(F)(F)F)cc3)c3ncccc32)C1 [Compound 87, 2-methyl-1-(3-(3-(4-(trifluoro-methyl)phenyl)-1H-pyrazolo[4,3-b]pyridin-1-yl)azetidin-1-yl)prop-2-en-1-one] |
| 12 | C=CC(=O)N1CCC(n2nc(-c3ccc(C(F)(F)F)cc3)c3cccc(C(F)(F)F)c32)C1 (stereo not shown) [Compound 46, 1-(3-(7-(trifluoromethyl)-3-(4-(trifluoromethyl)phenyl)-1H-indazol-1-yl)pyrrolidin-1-yl)-prop-2-en-1-one] |
| 20 | C=CC(=O)N1CCC(n2nc(-c3ccc(C(F)(F)F)cc3)c3ccncc32)C1 (stereo not shown) [Compound 22, 1-(3-(3-(4-(trifluoromethyl)phen-yl)-1H-pyrazolo[3,4-c]pyridin-1-yl)pyrrolidin-1-yl)prop-2-en-1-one] |
| 0.7 | C=C(F)C(=O)N1CC(c2nc(-c3ccc(C(F)(F)F)cc3)nc3ccccc23)C1 [Compound 256, 2 fluoro-1-(3-(2-(4-(trifluoromethyl)phenyl)quinazolin-4 yl)azetidin-1 yl)prop-2-en-1-one] |
| 11 | C=CC(=O)N1CCN(C(=O)c2nn(-c3ccc(C(F)(F)F)cc3)c3ccccc23)CC1 [Compound 43, 1-(4-(1-(4-(trifluoromethyl)phen-yl)-1H-indazole-3-carbonyl)-piperazin-1-yl)prop-2-en-1-one] |
| 6 | C=C(F)C(=O)N1CCC(n2nc(-c3ccc(C(F)(F)F)cc3)c3ncn(C)c(=O)c32)C1 (stereo not shown) [Compound 77, 1-(1-(2-fluoroacryloyl)pyrrolidin-3-yl)-6-methyl-3-(4-(trifluoro-methyl)phenyl)-1,6-dihydro-7H-pyrazolo[4,3-d]pyrimidin-7-one] |
| 158 | C=CC(=O)N1CCC(n2nc(-c3ccc(C(F)(F)F)cc3)c3cccc(C(=O)N(C)C)c32)C1 (stereo not shown) [Compound 103, 1-(1-acryloylpyrrolidin-3-yl)-N,N-dimethyl-3-(4-(trifluoromethyl)-phenyl)-1H-indazole-7-carbox-amide] |
| 84 | C=CC(=O)N1CCC(n2nc(-c3ccc(C(F)(F)F)nc3)c3cccc(C(=O)NC(C)C)c32)C1 (stereo not shown) [Compound 98, 1-(1-acryloylpyrrolidin-3-yl)-N-isopropyl-3-(6-(trifluoromethyl)-pyridin-3-yl)-1H-indazole-7-carboxamide] |
| 86 | C=CC(=O)N1CCC(n2nc(-c3ccc(C(F)(F)F)cc3)c3cccc(C(=O)N4CCC(F)(F)C4)c32)C1 (stereo not shown) [Compound 112, 1-(3-(7-(3,3-difluoropyrrolidine-1-carbonyl)-3-(4-(trifluoro-methyl)phenyl)-1H-indazol-1-yl)-pyrrolidin-1-yl)prop-2-en-1-one] |
| > 10000 | CCOC(=O)N1CC(n2nc(-c3ccc(OC(F)(F)F)cc3)c3cccnc32)C1 [Com. EX.5, ethyl 3-(3-(4-(trifluoromethoxy)phenyl)-1H-pyrazolo[3,4-b]pyridin-1-yl)azetidine-1-carboxylate, reference compound] |
| 25 | C=C(F)C(=O)N1CC(n2nc3c(c2-c2ccc(C(F)(F)F)cc2)COCC3)C1 [Compound 209, 2-fluoro-1-(3-(3-(4-(trifluoro-methyl)phenyl)-6,7-dihydro-pyrano[4,3-c]pyrazol-2(4H)-yl)azetidin-1-yl)prop-2-en-1-one] |
| 7.69 | C=C(F)C(=O)N1CC(n2nc(-c3cnc(C(F)(F)F)c(F)c3)c3cccnc32)C1 [Compound 184, 2-fluoro-1-(3-(3-(5-fluoro-6-(trifluoromethyl)pyridin-3-yl)-1H-pyrazolo[3,4-b]pyridin-1-yl)-azetidin-1-yl)prop-2-en-1-one] |
| 9.8 | C=C(F)C(=O)N1CC(n2c(=O)n(-c3ccc(C(F)(F)F)cc3)c3ccc(Cl)nc32)C1 [Compound 252, 5-chloro-3-(1-(2-fluoroacryloyl)azetidin-3-yl)-1-(4-(trifluoromethyl)phenyl)-1,3-dihydro-2H-imidazo[4,5-b]pyridin-2-one] |
| 35 | C=CC(=O)N1CC(n2nc(-c3ccc(C(F)(F)F)cc3)c3cccc(NC(C)=O)c32)C1 [Compound 15, N-(1-(1-acryloylazetidin-3 yl)-3-(4-(trifluoromethyl)phenyl)-1H-indazol-7-yl)acetamide] |
| 36 | C=CC(=O)N1CC(n2nc(-c3ccc(C4CC4)cc3)c3ncccc32)C1 [Compound 120, 1-(3-(3-(4-cyclopropylphenyl)-1H-pyrazolo[4,3-b]pyridin-1-yl)-azetidin-1-yl)prop-2-en-1-one] |
| 20 | C=CC(=O)N1CCC(n2nc(-c3ccc(C(F)(F)F)cc3)c3cccc(OC)c32)C1 (stereo not shown) [Compound 44, 1-(3-(7-methoxy-3-(4-(trifluoro-methyl)phenyl)-1H-indazol-1-yl)-pyrrolidin-1-yl)prop-2-en-1-one] |
| 3 | C=CC(=O)N1CC(n2nc(-c3ccc(C(F)(F)F)cc3)c3ccc(N(C)C)nc32)C1 [Compound 121, 1-(3-(6-(dimethylamino)-3-(4-(trifluoromethyl)phenyl)-1H-pyrazolo[3,4-b]pyridin-1-yl)-azetidin-1-yl)prop-2-en-1-one] |
| 10 | C=CC(=O)N1CCC(n2nc(-c3ccc(C(F)(F)F)cc3)c3nccnc32)C1 (stereo not shown) [Compound 18, 1-(3-(3-(4-(trifluoromethyl)phen-yl)-1H-pyrazolo[3,4-b]pyrazin-1-yl)pyrrolidin-1-yl)prop-2-en-1-one] |
| 9 | C=C(F)C(=O)N1CC(n2nc(-c3ccc(C(F)(F)F)cc3)c3nccnc32)C1 [Compound 160, 2-fluoro-1-(3-(3-(4-(trifluoro-methyl)phenyl)-1H-pyrazolo[3,4-b]pyrazin-1-yl)azetidin-1-yl)prop-2-en-1-one] |
| 75 | C=CC(=O)N1CCC2(CCC(n3nc(-c4ccc(C(F)(F)F)cc4)c4ncccc43)C2)C1 (stereo not shown) [Compound 125, 1-(7-(3-(4-(trifluoromethyl)phen-yl)-1H-pyrazolo[4,3-b]pyridin-1-yl)-2-azaspiro[4.4]nonan-2-yl)-prop-2-en-1-one] |
| 5 | C=CC(=O)N1CC(n2nc(-c3ccc(C(F)(F)F)cc3)c3ncccc32)C1 [Compound 82, 1-(3-(3-(4-(trifluoromethyl)phen-yl)-1H-pyrazolo[4,3-b]pyridin-1-yl)azetidin-1-yl)prop-2-en-1-one] |
| 7 | C=CC(=O)N1CC(n2nc(-c3ccc(C(F)(F)F)nc3)c3cccnc32)C1 [Compound 123, 1-(3-(3-(6-(trifluoromethyl)pyr-idin-3-yl)-1H-pyrazolo[3,4-b]-pyridin-1-yl)azetidin-1-yl)prop-2-en-1-one] |
| 32 | C=CC(=O)N1CCCC(n2nc(-c3ccc(C(F)(F)F)cc3)c3cccnc32)C1 (stereo not shown) [Compound 33, 1-(3-(3-(4-(trifluoromethyl)phen-yl)-1H-pyrazolo[3,4-b]pyridin-1-yl)piperidin-1-yl)prop-2-en-1-one] |
| 12 | C=CC(=O)N1CCC(n2nc(-c3ccc(C(F)(F)F)cc3F)c3cccnc32)C1 (stereo not shown) [Compound 29, 1-(3-(3-(2-fluoro-4-(trifluoro-methyl)phenyl)-1H-pyrazolo[3,4-b]pyridin-1-yl)pyrrolidin-1-yl)-prop-2-en-1-one] |

— US20230391779A1, “BICYCLIC COMPOUNDS, COMPOSITIONS AND USE THEREOF” (Betta Pharmaceuticals Co., Ltd., priority 2020, published 2023)
